Test results reported in publication PMC9885526 (ACS Central Science, 2023).

System: SARS-CoV-2 (Omicron variant)
Assay: microbe, parasite or virus in culture
Assay type: cell-based
Details: Severe acute respiratory syndrome coronavirus 2, Caco-2

CC(C)(C)[C@H](NC(=O)C(F)(F)F)C(=O)N1C[C@H]2[C@@H]([C@H]1C(=O)N[C@H](C#N)C[C@@H]1CCNC1=O)C2(C)C [PF-07321332, Nirmatrelvir]
EC50: 33 nM
